Where two headings read alike, the source gives them in different places.
Tests used:
ABL (Q252H) = ABL (Q252H) (Homo sapiens, UniProt P00519, Q252H); assay: Activity against various protein tyrosine kinases: ABL (Q252H); type: biochemical; details: for inhibition at 0.01 µM: read-out: % Inhibition at 10 nM; for inhibition at 1 µM: read-out: % Inhibition at 1 μM
Method: (§1) Using techniques know those of ordinary skill in the art, compounds were tested for activity against various protein tyrosine kinases.

AurC = target: T1, AurC (Homo sapiens, UniProt Q9UQB9); assay: Activity against various protein tyrosine kinases: AurC; type: biochemical; details: for inhibition at 0.01 µM: 10 nM
T1 sequence (Q9UQB9 1-309): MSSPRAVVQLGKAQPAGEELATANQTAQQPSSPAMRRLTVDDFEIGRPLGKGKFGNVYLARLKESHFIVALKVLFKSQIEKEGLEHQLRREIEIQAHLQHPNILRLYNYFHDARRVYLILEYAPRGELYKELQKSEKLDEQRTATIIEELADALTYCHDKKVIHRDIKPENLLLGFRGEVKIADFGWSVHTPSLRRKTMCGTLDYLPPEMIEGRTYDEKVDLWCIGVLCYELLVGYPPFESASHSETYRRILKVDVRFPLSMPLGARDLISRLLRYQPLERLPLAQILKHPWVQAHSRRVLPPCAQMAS
Method: as §1

BTK = BTK (Homo sapiens, UniProt Q06187); assay: Activity against various protein tyrosine kinases: BTK; type: biochemical; details: for inhibition at 0.01 µM: 10 nM
Sequence of BTK (Q06187 whole entry, species assumed): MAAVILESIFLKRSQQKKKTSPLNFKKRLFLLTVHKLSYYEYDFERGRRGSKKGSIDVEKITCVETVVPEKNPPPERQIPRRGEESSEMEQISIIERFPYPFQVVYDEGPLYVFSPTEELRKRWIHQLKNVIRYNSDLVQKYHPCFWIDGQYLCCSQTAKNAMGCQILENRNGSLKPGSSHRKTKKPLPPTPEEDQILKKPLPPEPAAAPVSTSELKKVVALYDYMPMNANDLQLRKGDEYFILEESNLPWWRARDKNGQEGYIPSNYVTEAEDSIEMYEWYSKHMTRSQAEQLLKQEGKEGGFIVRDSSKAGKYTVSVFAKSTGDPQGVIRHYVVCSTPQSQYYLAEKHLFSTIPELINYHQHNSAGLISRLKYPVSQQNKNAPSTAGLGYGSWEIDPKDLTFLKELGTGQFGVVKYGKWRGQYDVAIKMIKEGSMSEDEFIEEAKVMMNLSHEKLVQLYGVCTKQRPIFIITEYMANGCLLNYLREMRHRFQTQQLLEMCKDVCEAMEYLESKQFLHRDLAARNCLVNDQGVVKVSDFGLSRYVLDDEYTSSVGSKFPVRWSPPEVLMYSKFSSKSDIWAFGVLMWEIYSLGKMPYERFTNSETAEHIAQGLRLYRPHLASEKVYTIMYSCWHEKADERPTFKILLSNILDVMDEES
Method: as §1

EGFR = EGFR (Homo sapiens, UniProt P00533); assay: Activity against various protein tyrosine kinases: EGFR; type: biochemical; details: for inhibition at 0.01 µM: 10 nM
Sequence of EGFR (P00533 25-1210, species assumed): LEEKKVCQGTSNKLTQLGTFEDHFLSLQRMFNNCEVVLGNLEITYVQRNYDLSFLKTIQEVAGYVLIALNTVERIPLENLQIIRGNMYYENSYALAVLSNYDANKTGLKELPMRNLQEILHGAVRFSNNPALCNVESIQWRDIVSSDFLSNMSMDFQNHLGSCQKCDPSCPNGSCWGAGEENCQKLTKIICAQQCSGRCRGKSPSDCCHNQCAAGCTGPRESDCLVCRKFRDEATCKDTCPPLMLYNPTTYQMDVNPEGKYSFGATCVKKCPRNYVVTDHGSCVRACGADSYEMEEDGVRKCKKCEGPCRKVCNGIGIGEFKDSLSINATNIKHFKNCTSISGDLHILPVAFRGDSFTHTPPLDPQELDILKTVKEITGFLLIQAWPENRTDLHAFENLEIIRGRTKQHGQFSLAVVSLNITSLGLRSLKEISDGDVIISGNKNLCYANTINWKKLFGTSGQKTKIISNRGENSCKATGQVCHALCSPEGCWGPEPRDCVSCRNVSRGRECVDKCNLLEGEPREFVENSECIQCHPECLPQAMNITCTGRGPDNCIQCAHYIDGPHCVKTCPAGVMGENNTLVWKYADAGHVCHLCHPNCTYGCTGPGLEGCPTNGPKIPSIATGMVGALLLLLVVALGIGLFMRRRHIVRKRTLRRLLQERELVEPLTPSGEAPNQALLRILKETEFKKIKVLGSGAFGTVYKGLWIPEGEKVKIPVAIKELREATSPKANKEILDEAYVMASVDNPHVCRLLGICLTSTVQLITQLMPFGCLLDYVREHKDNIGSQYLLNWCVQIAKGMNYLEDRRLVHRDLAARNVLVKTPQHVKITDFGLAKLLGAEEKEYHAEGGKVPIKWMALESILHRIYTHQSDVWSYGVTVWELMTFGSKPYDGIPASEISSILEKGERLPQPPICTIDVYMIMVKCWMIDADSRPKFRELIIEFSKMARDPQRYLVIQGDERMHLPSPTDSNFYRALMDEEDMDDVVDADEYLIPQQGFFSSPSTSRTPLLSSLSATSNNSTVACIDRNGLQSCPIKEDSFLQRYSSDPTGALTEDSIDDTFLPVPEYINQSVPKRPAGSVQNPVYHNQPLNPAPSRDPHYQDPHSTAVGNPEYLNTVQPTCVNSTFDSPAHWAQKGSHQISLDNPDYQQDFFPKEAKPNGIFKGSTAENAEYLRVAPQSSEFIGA
Method: as §1

FGFR1 = FGFR1 (Homo sapiens, UniProt P11362); assay: Activity against various protein tyrosine kinases: FGFR1; type: biochemical; details: for inhibition at 0.01 µM: 10 nM
Method: as §1

HCK = HCK (Homo sapiens, UniProt P08631); assay: Activity against various protein tyrosine kinases: HCK; type: biochemical; details: for inhibition at 0.01 µM: 10 nM
Method: as §1

INSR = INSR (Homo sapiens, UniProt P06213); assay: Activity against various protein tyrosine kinases: INSR; type: biochemical; details: for inhibition at 0.01 µM: 10 nM
Sequence of INSR (P06213 28-1382, species assumed): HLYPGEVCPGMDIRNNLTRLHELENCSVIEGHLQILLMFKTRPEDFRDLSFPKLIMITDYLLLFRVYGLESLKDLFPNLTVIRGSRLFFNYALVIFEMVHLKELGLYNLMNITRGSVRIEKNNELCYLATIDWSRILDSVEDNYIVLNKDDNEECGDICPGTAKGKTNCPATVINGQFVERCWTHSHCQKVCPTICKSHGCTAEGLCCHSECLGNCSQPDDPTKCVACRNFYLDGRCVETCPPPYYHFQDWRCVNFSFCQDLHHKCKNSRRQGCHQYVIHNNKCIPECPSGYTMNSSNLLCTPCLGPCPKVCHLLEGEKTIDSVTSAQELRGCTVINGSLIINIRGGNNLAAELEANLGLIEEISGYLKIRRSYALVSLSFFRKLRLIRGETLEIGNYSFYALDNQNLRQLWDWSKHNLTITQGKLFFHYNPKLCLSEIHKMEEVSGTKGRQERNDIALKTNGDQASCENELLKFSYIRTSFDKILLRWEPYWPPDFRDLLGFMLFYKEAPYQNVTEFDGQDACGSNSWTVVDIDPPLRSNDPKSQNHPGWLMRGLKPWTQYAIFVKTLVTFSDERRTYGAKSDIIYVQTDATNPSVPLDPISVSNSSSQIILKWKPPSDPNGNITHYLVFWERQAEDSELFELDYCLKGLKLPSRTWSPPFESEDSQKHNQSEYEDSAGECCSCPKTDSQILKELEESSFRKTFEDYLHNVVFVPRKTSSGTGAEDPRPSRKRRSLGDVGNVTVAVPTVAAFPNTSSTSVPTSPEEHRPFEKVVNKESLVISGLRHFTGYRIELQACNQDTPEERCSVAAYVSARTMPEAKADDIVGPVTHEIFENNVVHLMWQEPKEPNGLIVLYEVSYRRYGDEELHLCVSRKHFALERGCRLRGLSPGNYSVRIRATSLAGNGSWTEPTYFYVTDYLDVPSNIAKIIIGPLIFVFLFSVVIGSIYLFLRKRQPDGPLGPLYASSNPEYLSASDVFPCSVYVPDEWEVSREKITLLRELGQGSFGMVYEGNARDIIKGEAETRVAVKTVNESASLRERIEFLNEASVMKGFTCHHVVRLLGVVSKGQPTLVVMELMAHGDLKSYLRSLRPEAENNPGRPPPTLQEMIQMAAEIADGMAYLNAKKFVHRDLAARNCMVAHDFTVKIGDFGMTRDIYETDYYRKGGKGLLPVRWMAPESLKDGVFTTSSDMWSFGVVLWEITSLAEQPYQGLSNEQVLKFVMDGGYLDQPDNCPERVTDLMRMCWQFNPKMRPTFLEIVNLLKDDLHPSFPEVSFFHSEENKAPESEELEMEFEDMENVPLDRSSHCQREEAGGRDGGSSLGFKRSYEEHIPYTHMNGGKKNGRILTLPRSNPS
Method: as §1

LYN = LYN (Homo sapiens, UniProt P07948); assay: Activity against various protein tyrosine kinases: LYN; type: biochemical; details: for inhibition at 0.01 µM: 10 nM
Method: as §1

MAPKAPK3 = MAPKAPK3 (Homo sapiens, UniProt Q16644); assay: Activity against various protein tyrosine kinases: MAPKAPK3; type: biochemical; details: for inhibition at 0.01 µM: 10 nM
Sequence of MAPKAPK3 (Q16644 whole entry, species assumed): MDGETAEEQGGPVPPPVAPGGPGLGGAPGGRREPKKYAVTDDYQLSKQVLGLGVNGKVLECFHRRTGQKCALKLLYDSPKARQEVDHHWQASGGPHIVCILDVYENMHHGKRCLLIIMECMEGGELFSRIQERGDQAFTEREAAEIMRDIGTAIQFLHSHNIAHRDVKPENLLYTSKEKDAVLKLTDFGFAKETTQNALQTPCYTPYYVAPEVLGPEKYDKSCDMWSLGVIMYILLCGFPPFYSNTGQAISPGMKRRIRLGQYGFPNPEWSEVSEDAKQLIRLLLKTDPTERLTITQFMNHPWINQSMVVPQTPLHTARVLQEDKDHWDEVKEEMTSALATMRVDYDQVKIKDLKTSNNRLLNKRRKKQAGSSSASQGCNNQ
Method: as §1

p38-delta = target: T2, p38-delta (Homo sapiens, UniProt O15264); assay: Activity against various protein tyrosine kinases: p38-delta; type: biochemical; details: for inhibition at 0.01 µM: 10 nM
T2 sequence (O15264 1-365): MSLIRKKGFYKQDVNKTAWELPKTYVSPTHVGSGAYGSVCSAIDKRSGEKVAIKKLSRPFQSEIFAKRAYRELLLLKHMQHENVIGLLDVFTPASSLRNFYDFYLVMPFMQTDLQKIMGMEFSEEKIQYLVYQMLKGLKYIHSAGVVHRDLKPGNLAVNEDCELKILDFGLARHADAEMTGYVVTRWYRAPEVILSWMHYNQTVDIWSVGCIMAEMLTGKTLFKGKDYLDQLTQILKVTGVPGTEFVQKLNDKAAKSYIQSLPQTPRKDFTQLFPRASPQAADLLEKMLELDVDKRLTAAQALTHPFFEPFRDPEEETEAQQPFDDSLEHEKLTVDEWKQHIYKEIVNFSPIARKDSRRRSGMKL
Method: as §1

PKA = assay: Activity against various protein tyrosine kinases: PKA; type: biochemical
Method: as §1

PKD2 = target: T3, PKD2 (Homo sapiens, UniProt Q9BZL6); assay: Activity against various protein tyrosine kinases: PKD2; type: biochemical; details: for inhibition at 0.01 µM: 10 nM
T3 sequence (Q9BZL6 1-878): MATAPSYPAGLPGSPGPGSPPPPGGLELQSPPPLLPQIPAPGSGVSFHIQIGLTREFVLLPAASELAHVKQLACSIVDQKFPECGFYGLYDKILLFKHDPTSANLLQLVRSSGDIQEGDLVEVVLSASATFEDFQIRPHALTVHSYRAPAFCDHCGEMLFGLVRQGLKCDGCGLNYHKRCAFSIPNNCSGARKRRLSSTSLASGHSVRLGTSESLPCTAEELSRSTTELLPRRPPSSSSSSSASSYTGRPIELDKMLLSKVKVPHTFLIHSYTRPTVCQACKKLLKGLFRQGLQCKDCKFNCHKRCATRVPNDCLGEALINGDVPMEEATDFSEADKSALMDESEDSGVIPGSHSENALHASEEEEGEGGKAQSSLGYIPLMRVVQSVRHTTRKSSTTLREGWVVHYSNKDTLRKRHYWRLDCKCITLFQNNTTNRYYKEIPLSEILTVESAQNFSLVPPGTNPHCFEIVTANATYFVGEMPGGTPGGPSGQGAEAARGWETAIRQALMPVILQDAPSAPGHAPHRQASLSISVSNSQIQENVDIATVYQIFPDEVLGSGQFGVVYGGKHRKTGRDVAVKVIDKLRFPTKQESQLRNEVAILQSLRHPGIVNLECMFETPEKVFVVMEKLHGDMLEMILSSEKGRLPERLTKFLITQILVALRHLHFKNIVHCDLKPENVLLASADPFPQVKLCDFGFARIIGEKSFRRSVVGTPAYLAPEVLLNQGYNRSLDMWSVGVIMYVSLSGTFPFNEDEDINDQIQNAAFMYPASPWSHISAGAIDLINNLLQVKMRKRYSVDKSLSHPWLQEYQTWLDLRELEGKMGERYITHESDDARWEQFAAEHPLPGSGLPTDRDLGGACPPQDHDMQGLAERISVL
Method: as §1

RSK1 = RSK1 (Homo sapiens, UniProt Q15418); assay: Activity against various protein tyrosine kinases: RSK1; type: biochemical; details: for inhibition at 0.01 µM: 10 nM
Sequence of RSK1 (Q15418 whole entry, species assumed): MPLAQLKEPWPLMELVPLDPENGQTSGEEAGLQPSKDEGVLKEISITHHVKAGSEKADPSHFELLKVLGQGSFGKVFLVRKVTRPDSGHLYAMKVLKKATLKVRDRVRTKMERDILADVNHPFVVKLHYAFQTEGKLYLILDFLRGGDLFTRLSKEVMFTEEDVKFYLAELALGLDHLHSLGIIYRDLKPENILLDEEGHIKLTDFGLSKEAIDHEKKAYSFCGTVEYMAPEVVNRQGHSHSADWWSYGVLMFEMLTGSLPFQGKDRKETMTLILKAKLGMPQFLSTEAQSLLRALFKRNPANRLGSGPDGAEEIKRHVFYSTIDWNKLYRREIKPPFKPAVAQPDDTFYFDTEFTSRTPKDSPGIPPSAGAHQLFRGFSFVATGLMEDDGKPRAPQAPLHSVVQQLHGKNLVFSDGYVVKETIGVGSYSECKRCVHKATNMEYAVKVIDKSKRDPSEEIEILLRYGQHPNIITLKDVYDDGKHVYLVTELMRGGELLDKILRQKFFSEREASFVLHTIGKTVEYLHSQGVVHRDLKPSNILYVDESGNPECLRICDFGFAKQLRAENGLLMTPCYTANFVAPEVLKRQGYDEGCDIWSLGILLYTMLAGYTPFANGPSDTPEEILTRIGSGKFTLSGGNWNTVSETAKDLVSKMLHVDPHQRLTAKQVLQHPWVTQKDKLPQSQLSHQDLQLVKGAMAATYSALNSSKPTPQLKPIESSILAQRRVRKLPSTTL
Method: as §1

SRC = SRC (Homo sapiens, UniProt P12931); assay: Activity against various protein tyrosine kinases: SRC; type: biochemical; details: for inhibition at 0.01 µM: 10 nM
Sequence of SRC (P12931 whole entry, species assumed): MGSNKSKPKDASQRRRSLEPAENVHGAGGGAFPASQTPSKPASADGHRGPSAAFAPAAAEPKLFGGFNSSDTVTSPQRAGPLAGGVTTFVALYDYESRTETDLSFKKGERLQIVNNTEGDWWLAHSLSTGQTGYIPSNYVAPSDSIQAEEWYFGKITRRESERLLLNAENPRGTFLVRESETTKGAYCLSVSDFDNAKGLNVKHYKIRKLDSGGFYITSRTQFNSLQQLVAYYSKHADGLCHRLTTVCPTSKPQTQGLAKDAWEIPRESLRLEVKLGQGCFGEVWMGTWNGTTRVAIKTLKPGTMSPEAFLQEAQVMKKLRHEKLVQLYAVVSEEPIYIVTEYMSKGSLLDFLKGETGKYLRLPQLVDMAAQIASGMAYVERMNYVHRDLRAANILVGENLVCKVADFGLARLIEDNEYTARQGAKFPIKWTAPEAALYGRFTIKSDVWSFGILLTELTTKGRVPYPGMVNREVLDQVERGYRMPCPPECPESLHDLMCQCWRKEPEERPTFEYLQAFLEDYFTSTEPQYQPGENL
Method: as §1

ABL [1] = target: T4, ABL (Homo sapiens, UniProt P00519); assay: Activity against various protein tyrosine kinases: ABL; type: biochemical; parameters: purchased MILLIPORE 14-529; details: for inhibition at 0.01 µM: read-out: % Inhibition at 10 nM; for inhibition at 1 µM: read-out: % Inhibition at 1 μM
Method: as §1

ABL [2] = target: T4, ABL; assay: Off-chip mobility-shift kinase assay (Caliper LABCHIP), ABL

Row | inhibition at 0.01 µM (AurC) [%] | inhibition at 1 µM (AurC) [%] | inhibition at 0.01 µM (BTK) [%] | inhibition at 1 µM (BTK) [%] | inhibition at 0.01 µM (EGFR) [%] | inhibition at 1 µM (EGFR) [%] | inhibition at 0.01 µM (FGFR1) [%] | inhibition at 1 µM (FGFR1) [%] | inhibition at 0.01 µM (HCK) [%] | inhibition at 1 µM (HCK) [%] | inhibition at 0.01 µM (INSR) [%] | inhibition at 1 µM (INSR) [%] | inhibition at 0.01 µM (LYN) [%] | inhibition at 1 µM (LYN) [%] | inhibition at 0.01 µM (MAPKAPK3) [%] | inhibition at 1 µM (MAPKAPK3) [%] | inhibition at 0.01 µM (p38-delta) [%] | inhibition at 1 µM (p38-delta) [%] | SMILES | % Inhibition at 10 nM (PKA) [%] | % Inhibition at 1 μM (PKA) [%] | other results
1 | 0 | 2 | 99 | 100 | 6 | 62 | 2 | 3 | 98 | 99 | 2 | 3 | 98 | 98 | 1 | 0 | 0 | 0 | COCCOCCOCCOCCOCCOCCOCCNC(=O)OCCN1CCN(c2cc(Nc3ncc(C(=O)Nc4c(C)cccc4Cl)s3)nc(C)n2)CC1 [mPEG7-NHCOO-Dasatinib] | 0 | 2 | inhibition at 0.01 µM (ABL (Q252H); ABL (Q252H), 10 nM): 99%; inhibition at 1 µM (ABL (Q252H); ABL (Q252H), 1 μM): 99%; inhibition at 0.01 µM (PKD2): 3%; inhibition at 1 µM (PKD2): 4%; inhibition at 0.01 µM (RSK1): 0%; inhibition at 1 µM (RSK1): 4%; inhibition at 0.01 µM (SRC): 98%; inhibition at 1 µM (SRC): 98%; inhibition at 0.01 µM (ABL [1]; ABL, 10 nM): 99%; inhibition at 1 µM (ABL [1]; ABL, 1 μM): 99%; IC50 (ABL [2]): 0.32 nM; ABL AVG % Activity at 1.0E−09 (ABL [2]; concentration 1.0E−09, dasatinib-corresponding compounds): 4%; ABL AVG % Activity at 1.0E−10 (ABL [2]; concentration 1.0E−10, dasatinib-corresponding compounds): 80%; ABL AVG % Activity at 1.0E−11 (ABL [2]; concentration 1.0E−11, dasatinib-corresponding compounds): 98%; ABL AVG % Activity at 3.0E−09 (ABL [2]; concentration 3.0E−09, dasatinib-corresponding compounds): −1%; ABL AVG % Activity at 3.0E−10 (ABL [2]; concentration 3.0E−10, dasatinib-corresponding compounds): 48%; ABL AVG % Activity at 3.0E−11 (ABL [2]; concentration 3.0E−11, dasatinib-corresponding compounds): 91%
2 | -1 | 0 | 99 | 100 | 3 | 76 | 11 | -3 | 98 | 98 | 1 | -1 | 99 | 99 | 5 | 3 | 0 | 2 | COCCOCCOCCNC(=O)OCCN1CCN(c2cc(Nc3ncc(C(=O)Nc4c(C)cccc4Cl)s3)nc(C)n2)CC1 [mPEG3-NHCOO-Dasatinib] | 3 | 0 | inhibition at 0.01 µM (ABL (Q252H)): 98%; inhibition at 1 µM (ABL (Q252H)): 99%; inhibition at 0.01 µM (PKD2): 12%; inhibition at 1 µM (PKD2): -5%; inhibition at 0.01 µM (RSK1): 2%; inhibition at 1 µM (RSK1): 0%; inhibition at 0.01 µM (SRC): 99%; inhibition at 1 µM (SRC): 99%; inhibition at 0.01 µM (ABL [1]): 99%; inhibition at 1 µM (ABL [1]): 99%; IC50 (ABL [2]): 0.3 nM

— US20120094998A1, “Oligomer-Protein Tyrosine Kinase Inhibitor Conjugates” (Nektar Therapeutics, priority 2009, published 2012)
